Data on 16 compounds can be found in US8354416B2 (Glaxo Group Limited, priority 2005, dated 2013).

Each structure is given as a SMILES string.

This assay deals with influx of neutrophils to the lung in LPS-challenged rats. Kind of assay: Rat LPS neutrophilia model. It is filed as in vivo. The following applies: intratracheal, LPS aerosol 100 ug/ml, in at least one of the range of conditions tested, significance p<0.05. As for the experimental part: Rat LPS Neutrophilia Model
The effect of compounds on the influx of neutrophils to the lung in LPS-challenged rats is evaluated as follows. The test compound is suspended in one of the following solutions: 0.5% tween 80/PBS, 0.5% tween 80/saline, 10% EtOH/saline (with pH adjusted to 2.0, or 8.0 with HCl, or unadjusted), Saline (pH 2.0, 6.5 or 8.0, 0.5% Tragacanth, 1% DMSO/20% Encapsin/Saline, or acidified 5% Tragacanth. The suspension process may be aided by the use of a glass homogenizer. For intratracheal administration, the animals are anesthetized with inhaled isoflurane and placed in a supine position, the trachea is intubated with a steel gavage needle (1.5 inch, 22 gauge, small ball) or a Penn-Century Microsprayer Aerosolizer (model IA-1B) and 200 ul of dosing solution is delivered. The animals are visually monitored during the recovery process, which typically occurs within two minutes. It is noted that the test compounds may be alternatively administered via the microsprayer in a dry powder blend with a suitable excipient, such as lactose.
Rats treated with compound or vehicle (15 min-24 hours pretreatment) are exposed to an LPS aerosol (100 ug/ml) for 15 min. Four hours later the rats are euthanized with pentobarbital (100 mg/kg, i.p.) and the airways are lavaged with 5 washes of 5 ml of phosphate buffered saline. The harvested cells are stained (Diffquick) and counted to determine total and differential cell data. […] Inhibition of neutrophil levels relative to no compound controls is calculated based on the differential counts.
The data is obtained as % inhibition using a particular concentration and pretreat time.
`Cc1ccc(C(=O)NC2CCCC2)cc1-c1nc(N2CCC(N)CC2)nc2c1ccc(=O)n2-c1c(F)cccc1F` [Example 70, 3-[2-(4-amino-1-piperidinyl)-8-(2,6-difluorophenyl)-7-oxo-7,8-dihydropyrido[2,3-d]pyrimidin-4-yl]-N-cyclopentyl-4-methylbenzamide]: the “inhibition of neutrophilia (neutrophil levels in airway lavage relative to no compound controls)” value is listed as “statistically nonsignificant inhibition of neutrophilia”.

Regarding `Cc1ccc(C(=O)Nc2nccs2)cc1-c1nc(NCCCNC(C)C)nc2c1ccc(=O)n2-c1c(F)cccc1F` [Example 101, 3-[8-(2,6-difluorophenyl)-2-({3-[(1-methylethyl)amino]propyl}amino)-7-oxo-7,8-dihydropyrido[2,3-d]pyrimidin-4-yl]-4-methyl-N-1,3-thiazol-2-ylbenzamide], the “inhibition of neutrophilia (neutrophil levels in airway lavage relative to no compound controls)” value is given as “statistically significant inhibition of neutrophilia”.

Regarding `CCN(CC)CCCNc1nc(-c2cc(C(=O)NCCOC)ccc2C)c2ccc(=O)n(-c3c(F)cccc3F)c2n1` [Example 134, 3-[2-{[3-(diethylamino)propyl]amino}-8-(2,6-difluorophenyl)-7-oxo-7,8-dihydropyrido[2,3-d]pyrimidin-4-yl]-4-methyl-N-[2-(methyloxy)ethyl]benzamidetrifluoroacetate], the “inhibition of neutrophilia (neutrophil levels in airway lavage relative to no compound controls)” value is “statistically nonsignificant inhibition of neutrophilia”.

Consider `Cc1ccc(C(=O)NCC(C)C)cc1-c1nc(N2CCC(N3CCC(C)CC3)CC2)nc2c1ccc(=O)n2-c1c(F)cccc1F` [Example 168, 3-[8-(2,6-difluorophenyl)-2-(4-methyl-1,4′-bipiperidin-1′-yl)-7-oxo-7,8-dihydropyrido[2,3-d]pyrimidin-4-yl]-4-methyl-N-(2-methylpropyl)benzamide], for which the “inhibition of neutrophilia (neutrophil levels in airway lavage relative to no compound controls)” value is “inactive”.

In the case of `CCN(CC)CCCNc1nc(-c2cc(C(=O)N[C@H](C)C(C)C)ccc2C)c2ccc(=O)n(-c3c(F)cccc3F)c2n1` [Example 130], the “inhibition of neutrophilia (neutrophil levels in airway lavage relative to no compound controls)” value is “statistically nonsignificant inhibition of neutrophilia”.

With `Cc1ccc(C(=O)Nc2nccs2)cc1-c1nc(NC2CC(C)(C)NC(C)(C)C2)nc2c1ccc(=O)n2-c1c(F)cccc1F` [Example 67, 3-{8-(2,6-difluorophenyl)-7-oxo-2-[(2,2,6,6-tetramethyl-4-piperidinyl)amino]-7,8-dihydropyrido[2,3-d]pyrimidin-4-yl}-4-methyl-N-1,3-thiazol-2-ylbenzamide], the “inhibition of neutrophilia (neutrophil levels in airway lavage relative to no compound controls)” value is recorded as “statistically nonsignificant inhibition of neutrophilia”.

`Cc1ccc(C(=O)Nc2ccc(F)cc2)cc1-c1nc(NC2CC(C)(C)NC(C)(C)C2)nc2c1ccc(=O)n2-c1c(F)cccc1F` [Example 66, 3-{8-(2,6-difluorophenyl)-7-oxo-2-[(2,2,6,6-tetramethyl-4-piperidinyl)amino]-7,8-dihydropyrido[2,3-d]pyrimidin-4-yl}-N-(4-fluorophenyl)-4-methylbenzamide]: the “inhibition of neutrophilia (neutrophil levels in airway lavage relative to no compound controls)” value is “statistically significant inhibition of neutrophilia”.

For the compound `Cc1ccc(C(=O)Nc2nccs2)cc1-c1nc(NCc2ncc[nH]2)nc2c1ccc(=O)n2-c1c(F)cccc1F` [79(c), 3-{8-(2,6-difluorophenyl)-2-[(1H-imidazol-2-ylmethyl)amino]-7-oxo-7,8-dihydropyrido[2,3-d]pyrimidin-4-yl}-4-methyl-N-1,3-thiazol-2-ylbenzamide], the “inhibition of neutrophilia (neutrophil levels in airway lavage relative to no compound controls)” value is “statistically significant inhibition of neutrophilia”.

For the compound `CNCCNc1nc(-c2cc(C(=O)Nc3ccc(F)cc3)ccc2C)c2ccc(=O)n(-c3c(F)cccc3F)c2n1` [Example 60, 3-(8-(2,6-difluorophenyl)-2-{[2-(methylamino)ethyl]amino}-7-oxo-7,8-dihydropyrido[2,3-d]pyrimidin-4-yl)-N-(4-fluorophenyl)-4-methylbenzamide], the “inhibition of neutrophilia (neutrophil levels in airway lavage relative to no compound controls)” value is reported as “statistically significant inhibition of neutrophilia”.

Turning to `Cc1ccc(C(=O)Nc2ccc(F)cc2)cc1-c1nc(N2CCC(N3CCC(C)CC3)CC2)nc2c1ccc(=O)n2-c1c(F)cccc1F` [Example 174, 3-[8-(2,6-difluorophenyl)-2-(4-methyl-1,4′-bipiperidin-1′-yl)-7-oxo-7,8-dihydropyrido[2,3-d]pyrimidin-4-yl]-N-(4-fluorophenyl)-4-methylbenzamide], the “inhibition of neutrophilia (neutrophil levels in airway lavage relative to no compound controls)” value is “inactive”.

In the case of `Cc1ccc(C(=O)NC(C)C)cc1-c1nc(N2CCC(N)CC2)nc2c1ccc(=O)n2-c1c(F)cccc1F` [Example 68, 3-[2-(4-amino-1-piperidinyl)-8-(2,6-difluorophenyl)-7-oxo-7,8-dihydropyrido[2,3-d]pyrimidin-4-yl]-4-methyl-N-(1-methylethyl)benzamide], the “inhibition of neutrophilia (neutrophil levels in airway lavage relative to no compound controls)” value was “statistically significant inhibition of neutrophilia”.

With `CCC(C)NC(=O)c1ccc(C)c(-c2nc(NCCCN(CC)CC)nc3c2ccc(=O)n3-c2c(F)cccc2F)c1` (stereo not shown) [Example 162, 3-[2-{[3-(diethylamino)propyl]amino}-8-(2,6-difluorophenyl)-7-oxo-7,8-dihydropyrido[2,3-d]pyrimidin-4-yl]-4-methyl-N-(1-methylpropyl)benzamide], the “inhibition of neutrophilia (neutrophil levels in airway lavage relative to no compound controls)” value was “statistically nonsignificant inhibition of neutrophilia”.

On to `CCN(CC)CCCNc1nc(-c2cc(C(=O)NCCF)ccc2C)c2ccc(=O)n(-c3c(F)cccc3F)c2n1` [Example 133, 3-[2-{[3-(diethylamino)propyl]amino}-8-(2,6-difluorophenyl)-7-oxo-7,8-dihydropyrido[2,3-d]pyrimidin-4-yl]-N-(2-fluoroethyl)-4-methylbenzamidetrifluoroacetate], for which the “inhibition of neutrophilia (neutrophil levels in airway lavage relative to no compound controls)” value is given as “statistically significant inhibition of neutrophilia”.

In the case of `Cc1ccc(C(=O)Nc2ccc(F)cc2)cc1-c1nc(NCCN(C)C)nc2c1ccc(=O)n2-c1c(F)cccc1F` [Example 112, 3-(8-(2,6-difluorophenyl)-2-{[2-(dimethylamino)ethyl]amino}-7-oxo-7,8-dihydropyrido[2,3-d]pyrimidin-4-yl)-N-(4-fluorophenyl)-4-methylbenzamide], the “inhibition of neutrophilia (neutrophil levels in airway lavage relative to no compound controls)” value is listed as “statistically nonsignificant inhibition of neutrophilia”.

Regarding `CCCNC(=O)c1ccc(C)c(-c2nc(N3CCC(N4CCC(C)CC4)CC3)nc3c2ccc(=O)n3-c2c(F)cccc2F)c1` [Example 166, 3-[8-(2,6-difluorophenyl)-2-(4-methyl-1,4′-bipiperidin-1′-yl)-7-oxo-7,8-dihydropyrido[2,3-d]pyrimidin-4-yl]-4-methyl-N-propylbenzamide], the “inhibition of neutrophilia (neutrophil levels in airway lavage relative to no compound controls)” value is recorded as “statistically significant inhibition of neutrophilia”.

In the case of `CCN(CC)CCCNc1nc(-c2cc(C(=O)Nc3ccc(F)cc3)ccc2C)c2ccc(=O)n(-c3c(F)cccc3F)c2n1` [Example 160, 3-[2-{[3-(diethylamino)propyl]amino}-8-(2,6-difluorophenyl)-7-oxo-7,8-dihydropyrido[2,3-d]pyrimidin-4-yl]-N-(4-fluorophenyl)-4-methylbenzamide], the “inhibition of neutrophilia (neutrophil levels in airway lavage relative to no compound controls)” value is “statistically significant inhibition of neutrophilia”.
